Assays:
[1] = test system: male Wistar rats; experiment: Vogel conflict drinking test; type: in vivo, rat; details: 3 mg/kg i.p. 60 min before test, 5 min session, p < 0.05
Experimental: (§1) The experiments were performed on male Wistar rats (200–220 g—behavioural test or 170–190 g—metabolic assay) obtained from an accredited animal facility at the Jagiellonian University Medical College, Poland. The animals were housed in a group of four in a controlled environment (ambient temperature 21 ± 2 °C; relative humidity 50–60%; 12 h light/dark cycles (lights on at 8:00). Standard laboratory food (LSM-B) and filtered water were freely available (behavioral tests). Animals were assigned randomly to treatment groups. All the experiments were performed by two observers unaware of the treatment applied between 9:00 and 14:00 on separate groups of animals. All animals were used only once.
(§2) Compounds were suspended in 1% Tween 80 immediately before administration in a volume of 2 mL/kg—behavioral tests or 1 mL/kg—body weight measures. Compounds were administered intraperitoneally (i.p.) 60 min before testing—behavioral tests. Control animals received vehicle (1% Tween 80) according to the same schedule.
The testing procedure was based on a method of Vogel et al. and used the Anxiety Monitoring System “Vogel test” produced by TSE Systems (Germany). […] The number of licks and the number of shocks received during a 5 min experimental session were recorded automatically.

[2] = molecular target: T1, dopaminergic D2LR (Homo sapiens, UniProt P14416); experiment: Radioligand binding assay, D2LR, [3H]-Raclopride; details: human D2L receptor stably expressed in HEK-293 cells; read-out: Ki D2 [3H]-Raclopride
T1 construct: expressed in transfected cells; host or cells: HEK-293
T1 sequence (P14416 whole entry): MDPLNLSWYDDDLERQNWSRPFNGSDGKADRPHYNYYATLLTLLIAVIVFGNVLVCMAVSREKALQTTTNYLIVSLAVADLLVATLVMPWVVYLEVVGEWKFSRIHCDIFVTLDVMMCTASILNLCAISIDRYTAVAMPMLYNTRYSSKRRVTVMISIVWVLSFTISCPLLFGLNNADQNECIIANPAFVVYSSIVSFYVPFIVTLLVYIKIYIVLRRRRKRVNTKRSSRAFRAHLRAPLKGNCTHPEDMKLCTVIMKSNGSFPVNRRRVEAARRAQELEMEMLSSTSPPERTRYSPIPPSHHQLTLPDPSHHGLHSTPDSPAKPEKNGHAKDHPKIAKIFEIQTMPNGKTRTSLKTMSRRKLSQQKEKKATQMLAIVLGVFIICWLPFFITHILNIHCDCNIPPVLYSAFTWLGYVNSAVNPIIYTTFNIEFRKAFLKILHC

[3] = test system: male Wistar rats; experiment: Forced swim test (FST); type: in vivo, rat; details: i.p. 60 min before test, 5 min observation, p < 0.05
Experimental: as §1, §2
The experiment was carried out according to the method of Porsolt et al.. […] On the following day (24 h later), the rats were replaced in the cylinder and the total duration of immobility was recorded during the whole 5-min test period. […]

[4] = molecular target: T2, 5-HT1A (Homo sapiens, UniProt P08908); experiment: Radioligand binding assay, 5-HT1A, [3H]-8-OH-DPAT; details: human receptor stably expressed in HEK-293 cells
T2 construct: expressed in transfected cells; host or cells: HEK-293
T2 sequence (P08908 1-422): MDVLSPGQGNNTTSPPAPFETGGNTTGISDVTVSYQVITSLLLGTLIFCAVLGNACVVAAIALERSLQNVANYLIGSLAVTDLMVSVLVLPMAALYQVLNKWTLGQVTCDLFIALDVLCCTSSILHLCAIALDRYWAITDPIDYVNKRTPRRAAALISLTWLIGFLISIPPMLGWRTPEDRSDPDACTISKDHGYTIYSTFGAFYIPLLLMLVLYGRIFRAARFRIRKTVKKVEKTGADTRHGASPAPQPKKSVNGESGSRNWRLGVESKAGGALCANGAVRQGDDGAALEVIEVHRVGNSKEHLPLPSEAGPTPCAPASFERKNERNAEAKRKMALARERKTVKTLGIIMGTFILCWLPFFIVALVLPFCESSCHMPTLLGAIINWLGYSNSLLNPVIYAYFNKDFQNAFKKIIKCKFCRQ

[5] = test system: HEK-293 cells; experiment: Toxicity in vitro, MTS test; type: cell-based; details: 0.1 μM–100 μM, 72 h
Experimental: The preliminary evaluation of the safety profile for the most promising 5-HT6R ligands 6 and 26 was performed in vitro with the HEK-293 eukaryotic cell line. The compounds examined were dissolved in culture growth media and incubated with cells for 72 h. Next, the MTS test was applied to determine the viability of the cells. […] The reference cytostatic drug doxorubicin (DX) at the very low concentration 1 μM was also cytotoxic.
The ATCC CRL 1573 HEK-293 cells were seeded in 96-well plates (NuncTM) at a concentration of 1 × 10^4 cells/well in 200 μL in Dulbecco’s Modified Eagle’s Medium (Gibco®) supplemented with 10% fetal bovine serum (Gibco®), and cultured at 37 °C in an atmosphere containing 5% of CO2 for 24 h to reach 60% confluence. The 10 mM stock solutions of 5-HT6R ligands 6 and 26 in DMSO were diluted into fresh growth medium and added into the microplates at the final concentrations 0.1 μM –100 μM. […] The cytostatic drug doxorubicin (Sigma-Aldrich) at the concentration 1 μM was used as a reference. After 72 h of incubation 20 μL of CellTiter 96® AQueous Non-Radioactive Cell Proliferation Assay (MTS) (Promega®) was added to each well and the cells were incubated under the same conditions for 2 h. The absorbance of the samples was measured using a microplate reader EnSpire (PerkinElmer, Waltham, MA, USA) at 490 nm. Statistical significance was analyzed by GraphPad Prism™ software v. 5.01 (GraphPad Software, La Jolla, CA, USA) using One-way ANOVA and Bonferroni’s Multiple Comparison Post Test.

## CN1CCN(c2nc(N)nc(CN3C(=O)NC(C)(c4ccc5ccccc5c4)C3=O)n2)CC1 (centres unmarked) [Compound 26, 3-((4-Amino-6-(4-methylpiperazin-1-yl)-1,3,5-triazin-2-yl)methyl)-5-methyl-5-(naphthalen-2-yl)imidazolidine-2,4-dione]
[1]
  increase of number of accepted shocks: 76%
[2]
  Ki: 4.25 µM
[3]
  decrease of immobility time vs. vehicle treated group: about 20%
[4]
  Ki: 14.2 µM
[5]
  toxicity in HEK-293 cells: no significant toxicity

— article PMC6222450, “Computer-Aided Studies for Novel Arylhydantoin 1,3,5-Triazine Derivatives as 5-HT6 Serotonin Receptor Ligands with Antidepressive-Like, Anxiolytic and Antiobesity Action In Vivo” (Molecules : A Journal of Synthetic Chemistry and Natural …, 2018)
